Assay results as given in the kinase profiling compilation of Christmann-Franck et al. (2016).

Tests used:
Experiment in all cases: KINOMEscan competition binding
Conditions in all cases: compound 10.0 µM
[1] = molecular target: TYRO3 (human) (UniProt Q06418)
[2] = tested on: FLT3 (human), P36888 [ITD]
[3] = molecular target: PRKCD (human) (UniProt Q05655)
[4] = molecular target: PAK2 (human) (UniProt Q13177)
[5] = molecular target: IGF1R (human) (UniProt P08069)
[6] = molecular target: FGFR3 (human) (UniProt P22607)
[7] = molecular target: MARK2 (human) (UniProt Q7KZI7)
[8] = molecular target: NUAK1 (human) (UniProt O60285)
[9] = molecular target: IKBKB (human) (UniProt O14920)
[10] = molecular target: RAF1 (human) (UniProt P04049)
[11] = molecular target: CSK (human) (UniProt P41240)
Sequence of CSK (human) (P41240 whole entry, looked up): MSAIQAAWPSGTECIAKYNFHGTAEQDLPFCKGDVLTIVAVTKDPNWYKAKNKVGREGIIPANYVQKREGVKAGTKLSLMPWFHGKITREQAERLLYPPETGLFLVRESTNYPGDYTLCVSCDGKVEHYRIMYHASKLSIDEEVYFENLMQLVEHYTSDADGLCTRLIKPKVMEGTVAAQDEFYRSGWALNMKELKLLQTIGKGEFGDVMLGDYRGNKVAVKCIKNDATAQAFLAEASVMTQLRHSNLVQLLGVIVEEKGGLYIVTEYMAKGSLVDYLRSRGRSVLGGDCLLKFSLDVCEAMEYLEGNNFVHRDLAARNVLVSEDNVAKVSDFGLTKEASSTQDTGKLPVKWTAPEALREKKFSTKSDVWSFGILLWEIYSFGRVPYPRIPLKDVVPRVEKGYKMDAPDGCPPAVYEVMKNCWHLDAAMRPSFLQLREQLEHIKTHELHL

[12] = molecular target: MERTK (human) (UniProt Q12866)
Sequence of MERTK (human) (Q12866 whole entry, looked up): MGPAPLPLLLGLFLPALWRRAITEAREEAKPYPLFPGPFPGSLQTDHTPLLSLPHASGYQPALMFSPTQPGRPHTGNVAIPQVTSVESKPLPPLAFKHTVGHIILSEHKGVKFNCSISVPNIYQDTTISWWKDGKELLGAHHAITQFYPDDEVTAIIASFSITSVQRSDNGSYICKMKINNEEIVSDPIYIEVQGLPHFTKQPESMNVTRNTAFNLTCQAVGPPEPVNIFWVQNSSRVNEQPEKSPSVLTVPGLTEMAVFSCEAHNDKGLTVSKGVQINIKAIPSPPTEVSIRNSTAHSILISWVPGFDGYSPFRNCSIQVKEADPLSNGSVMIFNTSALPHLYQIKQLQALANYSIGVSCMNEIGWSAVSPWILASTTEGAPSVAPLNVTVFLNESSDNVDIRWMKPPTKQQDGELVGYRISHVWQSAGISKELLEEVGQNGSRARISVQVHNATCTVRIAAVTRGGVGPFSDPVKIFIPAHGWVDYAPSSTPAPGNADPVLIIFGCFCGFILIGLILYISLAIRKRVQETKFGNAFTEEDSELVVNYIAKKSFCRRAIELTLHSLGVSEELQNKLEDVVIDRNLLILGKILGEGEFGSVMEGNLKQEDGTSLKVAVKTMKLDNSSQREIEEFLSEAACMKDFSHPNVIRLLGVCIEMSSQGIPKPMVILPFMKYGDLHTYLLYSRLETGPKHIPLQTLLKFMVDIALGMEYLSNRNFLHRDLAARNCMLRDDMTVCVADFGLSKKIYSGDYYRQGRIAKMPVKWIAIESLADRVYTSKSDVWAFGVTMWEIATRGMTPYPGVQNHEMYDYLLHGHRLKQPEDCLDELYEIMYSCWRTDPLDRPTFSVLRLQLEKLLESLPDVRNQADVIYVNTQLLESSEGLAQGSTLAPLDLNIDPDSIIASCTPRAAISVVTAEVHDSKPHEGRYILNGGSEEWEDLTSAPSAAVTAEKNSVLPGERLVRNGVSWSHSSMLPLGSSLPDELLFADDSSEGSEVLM

[13] = molecular target: RPS6KA6 KD1 (human) (UniProt Q9UK32)
[14] = molecular target: LIMK1 (human) (UniProt P53667)
Sequence of LIMK1 (human) (P53667 whole entry, looked up): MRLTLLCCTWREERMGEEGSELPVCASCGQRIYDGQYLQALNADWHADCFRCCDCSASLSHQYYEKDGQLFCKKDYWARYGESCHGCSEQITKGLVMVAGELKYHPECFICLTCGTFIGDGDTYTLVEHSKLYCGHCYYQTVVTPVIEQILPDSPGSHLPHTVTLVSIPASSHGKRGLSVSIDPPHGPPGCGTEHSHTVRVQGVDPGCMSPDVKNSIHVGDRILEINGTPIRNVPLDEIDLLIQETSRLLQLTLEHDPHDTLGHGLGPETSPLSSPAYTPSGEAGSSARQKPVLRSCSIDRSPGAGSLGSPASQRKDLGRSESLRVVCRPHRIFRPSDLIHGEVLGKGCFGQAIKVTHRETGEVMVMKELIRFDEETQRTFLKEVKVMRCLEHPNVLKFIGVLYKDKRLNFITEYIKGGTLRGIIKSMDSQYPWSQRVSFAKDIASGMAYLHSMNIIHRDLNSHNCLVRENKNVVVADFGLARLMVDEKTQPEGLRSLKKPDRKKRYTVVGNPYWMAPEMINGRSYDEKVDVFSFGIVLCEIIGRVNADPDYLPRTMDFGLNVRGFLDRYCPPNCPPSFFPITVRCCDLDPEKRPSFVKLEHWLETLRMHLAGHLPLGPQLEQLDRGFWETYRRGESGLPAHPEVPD

[15] = molecular target: STK24 (human) (UniProt Q9Y6E0)
Sequence of STK24 (human) (Q9Y6E0 whole entry, looked up): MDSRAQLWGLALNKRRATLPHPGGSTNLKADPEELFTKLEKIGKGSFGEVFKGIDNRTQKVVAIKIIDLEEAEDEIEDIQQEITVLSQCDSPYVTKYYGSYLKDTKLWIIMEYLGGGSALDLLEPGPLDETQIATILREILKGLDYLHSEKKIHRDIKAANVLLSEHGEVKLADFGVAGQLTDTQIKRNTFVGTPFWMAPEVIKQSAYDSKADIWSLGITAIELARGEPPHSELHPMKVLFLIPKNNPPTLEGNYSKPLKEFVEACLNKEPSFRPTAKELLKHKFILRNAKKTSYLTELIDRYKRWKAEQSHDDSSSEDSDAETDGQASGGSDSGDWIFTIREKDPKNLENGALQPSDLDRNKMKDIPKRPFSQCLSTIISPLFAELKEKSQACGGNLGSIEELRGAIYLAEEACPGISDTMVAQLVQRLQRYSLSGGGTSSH

[16] = molecular target: PDPK1 (human) (UniProt O15530)
[17] = molecular target: JAK3 JH1 catalytic (human) (UniProt P52333)
[18] = molecular target: PRKG2 (human) (UniProt Q13237)
[19] = molecular target: ERBB4 (human) (UniProt Q15303)
[20] = molecular target: STK33 (human) (UniProt Q9BYT3)
[21] = molecular target: GSK3B (human) (UniProt P49841)
[22] = molecular target: AURKC (human) (UniProt Q9UQB9)
[23] = molecular target: MAP4K4 (human) (UniProt O95819)
[24] = molecular target: CDC42BPB (human) (UniProt Q9Y5S2)
[25] = molecular target: PKN2 (human) (UniProt Q16513)
[26] = molecular target: BMPR2 (human) (UniProt Q13873)
Sequence of BMPR2 (human) (Q13873 whole entry, looked up): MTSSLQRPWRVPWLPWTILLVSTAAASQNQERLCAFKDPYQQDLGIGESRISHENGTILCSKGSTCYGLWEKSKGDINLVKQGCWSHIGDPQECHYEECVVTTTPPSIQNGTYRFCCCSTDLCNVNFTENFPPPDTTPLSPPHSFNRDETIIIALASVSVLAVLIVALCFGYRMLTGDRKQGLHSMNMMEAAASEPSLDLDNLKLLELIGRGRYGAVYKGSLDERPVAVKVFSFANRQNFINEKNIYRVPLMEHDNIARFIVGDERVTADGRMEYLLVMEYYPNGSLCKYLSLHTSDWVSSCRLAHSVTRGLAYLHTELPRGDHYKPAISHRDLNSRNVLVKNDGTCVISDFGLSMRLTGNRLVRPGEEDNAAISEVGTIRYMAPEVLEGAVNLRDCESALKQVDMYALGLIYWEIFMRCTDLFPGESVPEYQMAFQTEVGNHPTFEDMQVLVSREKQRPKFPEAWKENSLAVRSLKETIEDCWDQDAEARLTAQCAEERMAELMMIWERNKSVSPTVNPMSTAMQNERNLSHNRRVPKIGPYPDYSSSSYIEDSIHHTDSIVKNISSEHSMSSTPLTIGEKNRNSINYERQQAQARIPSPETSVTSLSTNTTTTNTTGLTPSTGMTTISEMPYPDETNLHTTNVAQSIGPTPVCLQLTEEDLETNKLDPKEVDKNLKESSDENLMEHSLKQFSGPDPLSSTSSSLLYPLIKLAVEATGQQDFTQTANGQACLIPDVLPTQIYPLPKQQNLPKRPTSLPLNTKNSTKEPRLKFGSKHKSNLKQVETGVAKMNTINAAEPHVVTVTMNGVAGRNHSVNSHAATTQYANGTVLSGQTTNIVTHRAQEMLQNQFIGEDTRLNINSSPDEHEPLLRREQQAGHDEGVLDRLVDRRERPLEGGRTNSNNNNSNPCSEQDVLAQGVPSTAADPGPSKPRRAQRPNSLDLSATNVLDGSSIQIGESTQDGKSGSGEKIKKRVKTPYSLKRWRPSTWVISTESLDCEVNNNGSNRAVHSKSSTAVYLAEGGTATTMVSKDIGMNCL

[27] = molecular target: CSNK2A1 (human) (UniProt P68400)
[28] = molecular target: CAMKK1 (human) (UniProt Q8N5S9)
[29] = molecular target: MARK3 (human) (UniProt P27448)
[30] = molecular target: JAK1 JH1 catalytic (human) (UniProt P23458)
[31] = molecular target: BRSK2 (human) (UniProt Q8IWQ3)
[32] = molecular target: DCLK3 (human) (UniProt Q9C098)
[33] = molecular target: CAMKK2 (human) (UniProt Q96RR4)
[34] = molecular target: RPS6KA2 KD1 (human) (UniProt Q15349)
[35] = molecular target: AKT3 (human) (UniProt Q9Y243)
[36] = molecular target: DCLK2 (human) (UniProt Q8N568)
[37] = molecular target: NTRK3 (human) (UniProt Q16288)
[38] = molecular target: ROCK2 (human) (UniProt O75116)
[39] = molecular target: BLK (human) (UniProt P51451)
[40] = molecular target: MAPKAPK5 (human) (UniProt Q8IW41)

Sequence of PRKCD (human) (Q05655 whole entry, looked up): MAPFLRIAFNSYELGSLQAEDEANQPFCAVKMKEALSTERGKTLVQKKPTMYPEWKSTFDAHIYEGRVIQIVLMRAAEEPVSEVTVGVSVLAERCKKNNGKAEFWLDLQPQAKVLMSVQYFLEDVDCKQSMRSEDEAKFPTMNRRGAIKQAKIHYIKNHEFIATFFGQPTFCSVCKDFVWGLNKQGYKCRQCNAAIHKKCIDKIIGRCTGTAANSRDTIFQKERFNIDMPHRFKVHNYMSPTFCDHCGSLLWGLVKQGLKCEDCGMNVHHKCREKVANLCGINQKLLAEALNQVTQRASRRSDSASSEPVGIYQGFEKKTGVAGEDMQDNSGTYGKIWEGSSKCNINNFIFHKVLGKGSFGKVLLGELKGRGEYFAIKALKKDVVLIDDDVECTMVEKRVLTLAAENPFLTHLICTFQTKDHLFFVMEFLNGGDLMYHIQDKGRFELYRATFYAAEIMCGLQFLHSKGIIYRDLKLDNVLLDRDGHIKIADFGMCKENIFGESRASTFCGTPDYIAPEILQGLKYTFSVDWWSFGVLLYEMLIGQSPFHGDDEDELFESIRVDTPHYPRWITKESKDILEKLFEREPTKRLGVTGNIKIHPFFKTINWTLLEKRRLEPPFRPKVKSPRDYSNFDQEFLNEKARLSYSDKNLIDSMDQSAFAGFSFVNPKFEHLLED
Sequence of PAK2 (human) (Q13177 whole entry, looked up): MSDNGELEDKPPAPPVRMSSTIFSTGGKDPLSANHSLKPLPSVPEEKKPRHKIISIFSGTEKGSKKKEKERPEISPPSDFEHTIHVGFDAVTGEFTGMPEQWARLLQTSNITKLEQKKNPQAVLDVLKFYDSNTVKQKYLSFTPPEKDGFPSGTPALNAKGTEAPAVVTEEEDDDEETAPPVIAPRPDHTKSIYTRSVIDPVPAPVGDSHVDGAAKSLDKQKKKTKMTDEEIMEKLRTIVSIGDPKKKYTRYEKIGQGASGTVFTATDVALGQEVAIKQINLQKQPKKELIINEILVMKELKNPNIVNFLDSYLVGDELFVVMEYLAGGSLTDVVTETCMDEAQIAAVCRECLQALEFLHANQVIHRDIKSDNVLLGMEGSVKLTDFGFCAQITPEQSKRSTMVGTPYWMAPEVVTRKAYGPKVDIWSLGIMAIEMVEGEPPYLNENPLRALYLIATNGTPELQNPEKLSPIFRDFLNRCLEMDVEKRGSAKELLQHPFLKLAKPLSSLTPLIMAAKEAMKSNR

Compound	kinase still bound, per cent of control [1] [%]	kinase still bound, per cent of control [2] [%]	kinase still bound, per cent of control [3] [%]	kinase still bound, per cent of control [4] [%]	kinase still bound, per cent of control [5] [%]	kinase still bound, per cent of control [6] [%]	kinase still bound, per cent of control [7] [%]	kinase still bound, per cent of control [8] [%]	kinase still bound, per cent of control [9] [%]	kinase still bound, per cent of control [10] [%]	kinase still bound, per cent of control [11] [%]	kinase still bound, per cent of control [12] [%]	kinase still bound, per cent of control [13] [%]	kinase still bound, per cent of control [14] [%]	kinase still bound, per cent of control [15] [%]	kinase still bound, per cent of control [16] [%]	kinase still bound, per cent of control [17] [%]	kinase still bound, per cent of control [18] [%]	kinase still bound, per cent of control [19] [%]	kinase still bound, per cent of control [20] [%]	also measured
Cc1ccc(NC(=O)c2cccc(C(C)(C)C#N)c2)cc1Nc1ccc2ncn(C)c(=O)c2c1	100	78	89	100	95	100	92	100	94	2.3	1.2	100	87	100	79	100	87	100	34	99	kinase still bound, per cent of control [21]: 95%; kinase still bound, per cent of control [22]: 100%; kinase still bound, per cent of control [23]: 10%; kinase still bound, per cent of control [24]: 100%; kinase still bound, per cent of control [25]: 100%; kinase still bound, per cent of control [26]: 58%; kinase still bound, per cent of control [27]: 88%; kinase still bound, per cent of control [28]: 34%; kinase still bound, per cent of control [29]: 89%; kinase still bound, per cent of control [30]: 100%; kinase still bound, per cent of control [31]: 100%; kinase still bound, per cent of control [32]: 100%; kinase still bound, per cent of control [33]: 28%; kinase still bound, per cent of control [34]: 89%; kinase still bound, per cent of control [35]: 100%; kinase still bound, per cent of control [36]: 100%; kinase still bound, per cent of control [37]: 38%; kinase still bound, per cent of control [38]: 80%; kinase still bound, per cent of control [39]: 1%; kinase still bound, per cent of control [40]: 100%
CCN1CCN(Cc2ccc(Nc3ncc4c(n3)N(C)c3ccccc3C(=O)N4C)cc2C(F)(F)F)CC1	92	19	100	78	100	43	40	3	100	100	93	48	19	52	35	100	9.8	86	95	36	kinase still bound, per cent of control [21]: 47%; kinase still bound, per cent of control [22]: 8.7%; kinase still bound, per cent of control [23]: 81%; kinase still bound, per cent of control [24]: 99%; kinase still bound, per cent of control [25]: 55%; kinase still bound, per cent of control [26]: 91%; kinase still bound, per cent of control [27]: 79%; kinase still bound, per cent of control [28]: 79%; kinase still bound, per cent of control [29]: 11%; kinase still bound, per cent of control [30]: 93%; kinase still bound, per cent of control [31]: 42%; kinase still bound, per cent of control [32]: 68%; kinase still bound, per cent of control [33]: 47%; kinase still bound, per cent of control [34]: 37%; kinase still bound, per cent of control [35]: 100%; kinase still bound, per cent of control [36]: 1.3%; kinase still bound, per cent of control [37]: 100%; kinase still bound, per cent of control [38]: 100%; kinase still bound, per cent of control [39]: 8.3%; kinase still bound, per cent of control [40]: 100%
N#Cc1c(NC(=O)c2cccc3ccccc23)sc2c1CCCC2	76	97	100	97	76	100	100	77	72	100	95	100	70	76	80	81	98	86	100	86	kinase still bound, per cent of control [21]: 66%; kinase still bound, per cent of control [22]: 87%; kinase still bound, per cent of control [23]: 66%; kinase still bound, per cent of control [24]: 80%; kinase still bound, per cent of control [25]: 81%; kinase still bound, per cent of control [26]: 100%; kinase still bound, per cent of control [27]: 89%; kinase still bound, per cent of control [28]: 91%; kinase still bound, per cent of control [29]: 89%; kinase still bound, per cent of control [30]: 78%; kinase still bound, per cent of control [31]: 100%; kinase still bound, per cent of control [32]: 100%; kinase still bound, per cent of control [33]: 94%; kinase still bound, per cent of control [34]: 93%; kinase still bound, per cent of control [35]: 82%; kinase still bound, per cent of control [36]: 100%; kinase still bound, per cent of control [37]: 86%; kinase still bound, per cent of control [38]: 100%; kinase still bound, per cent of control [39]: 91%; kinase still bound, per cent of control [40]: 100%
